# Measured values: PubChem BioAssay AID2060513 (Molecular Pharmacology Branch, DTP, NCI, 2025)
# Tested on: 299254-011-R-J1-PDC complex spheroids viability
# Assay: Anticancer human tumor 299254-011-R-J1-PDC patient-derived melanoma cell line growth inhibition [GQUAD]
# Settings: for IC50: curve of first compound; for viability, T/C: stronger effect = lower value
# Procedure, shortened: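 Multi-cell-type spheroids of tumor cells with HUVEC and mesenchymal stem cells, treated with drug combinations. Concentrations descend in half-log steps from near clinical Cmax, or from 10 microM where Cmax is unknown; viability read-out.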
# [1] = second compound 0.0316 µM, first compound 0.0316 µM
# [2] = second compound 0.0316 µM, first compound 0.1 µM
# [3] = second compound 0.0316 µM, first compound 0.316 µM
# [4] = second compound 0.0316 µM, first compound 1 µM
# [5] = second compound 0.0316 µM, first compound 3.16 µM
# [6] = second compound 0.0316 µM, first compound 10 µM
# [7] = second compound 0.1 µM, first compound 0.0316 µM
# [8] = second compound 0.1 µM, first compound 0.1 µM
# [9] = second compound 0.1 µM, first compound 0.316 µM
# [10] = second compound 0.1 µM, first compound 1 µM
# [11] = second compound 0.1 µM, first compound 3.16 µM
# [12] = second compound 0.1 µM, first compound 10 µM
# [13] = second compound 0.316 µM, first compound 0.0316 µM
# [14] = second compound 0.316 µM, first compound 0.1 µM
# [15] = second compound 0.316 µM, first compound 0.316 µM
# [16] = second compound 0.316 µM, first compound 1 µM
# [17] = second compound 0.316 µM, first compound 3.16 µM
# [18] = second compound 0.316 µM, first compound 10 µM
# [19] = second compound 1 µM, first compound 0.0316 µM
# [20] = second compound 1 µM, first compound 0.1 µM
# [21] = second compound 1 µM, first compound 0.316 µM
# [22] = second compound 1 µM, first compound 1 µM
# [23] = second compound 1 µM, first compound 3.16 µM
# [24] = second compound 1 µM, first compound 10 µM
# [25] = second compound 3.16 µM, first compound 0.0316 µM
# [26] = second compound 3.16 µM, first compound 0.1 µM
# [27] = second compound 3.16 µM, first compound 0.316 µM
# [28] = second compound 3.16 µM, first compound 1 µM
# [29] = second compound 3.16 µM, first compound 3.16 µM
# [30] = second compound 3.16 µM, first compound 10 µM
# [31] = second compound 10 µM, first compound 0.0316 µM
# [32] = second compound 10 µM, first compound 0.1 µM
# [33] = second compound 10 µM, first compound 0.316 µM
# [34] = second compound 10 µM, first compound 1 µM
# [35] = second compound 10 µM, first compound 3.16 µM
# [36] = second compound 10 µM, first compound 10 µM
# 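Further: spheroids exposed to the agents for seven days before readout.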
# 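Wherever viability, T/C is given: percent viability relative to DMSO vehicle control wells = 100%.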
compound,measurement,setting,value
COc1cccc2c1C(=O)c1c(O)c3c(c(O)c1C2=O)CC(O)(C(=O)CO)CC3OC1CC(N)C(O)C(C)O1 (stereo unspecified) + CN(C)c1ccc(Nc2c3ccc(NC(=O)CCN4CCCC4)cc3nc3cc(NC(=O)CCN4CCCC4)ccc23)cc1,IC50,second compound 0.0316 µM,4.26 µM
same,IC50,second compound 0.1 µM,5.65 µM
same,IC50,second compound 0.316 µM,5.03 µM
same,IC50,second compound 1 µM,4.9 µM
same,IC50,second compound 3.16 µM,5.46 µM
same,IC50,second compound 10 µM,6.44 µM
same,"viability, T/C",[1],109%
same,"viability, T/C",[2],103%
same,"viability, T/C",[3],90.5%
same,"viability, T/C",[4],72.5%
same,"viability, T/C",[5],61.9%
same,"viability, T/C",[6],28.8%
same,"viability, T/C",[7],93.1%
same,"viability, T/C",[8],106%
same,"viability, T/C",[9],94.6%
same,"viability, T/C",[10],79.8%
same,"viability, T/C",[11],71%
same,"viability, T/C",[12],31.5%
same,"viability, T/C",[13],112%
same,"viability, T/C",[14],110%
same,"viability, T/C",[15],81%
same,"viability, T/C",[16],87.1%
same,"viability, T/C",[17],64.8%
same,"viability, T/C",[18],30.7%
same,"viability, T/C",[19],99.7%
same,"viability, T/C",[20],96.3%
same,"viability, T/C",[21],90.1%
same,"viability, T/C",[22],89.5%
same,"viability, T/C",[23],63.4%
same,"viability, T/C",[24],27.3%
same,"viability, T/C",[25],109%
same,"viability, T/C",[26],107%
same,"viability, T/C",[27],83.7%
same,"viability, T/C",[28],92.4%
same,"viability, T/C",[29],72.4%
same,"viability, T/C",[30],27.3%
same,"viability, T/C",[31],91.8%
same,"viability, T/C",[32],110%
same,"viability, T/C",[33],87.6%
same,"viability, T/C",[34],99.6%
same,"viability, T/C",[35],75.9%
same,"viability, T/C",[36],34%
Cc1cccc(N(C)C(=O)C2C(O)CCN2c2nc(C)cc(C(F)(F)F)c2C#N)c1 (stereo unspecified) + Cc1cnc(CNC(=O)c2c(=O)c3ccc(N4CCCN(C)CC4)nc3n3c2sc2ccccc23)cn1,IC50,second compound 0.0316 µM,> 10 µM
same,IC50,second compound 0.1 µM,> 10 µM
same,IC50,second compound 0.316 µM,> 10 µM
same,IC50,second compound 1 µM,> 10 µM
same,IC50,second compound 3.16 µM,> 10 µM
same,IC50,second compound 10 µM,> 10 µM
same,"viability, T/C",[1],120%
same,"viability, T/C",[2],115%
same,"viability, T/C",[3],117%
same,"viability, T/C",[4],89.3%
same,"viability, T/C",[5],87.6%
same,"viability, T/C",[6],112%
same,"viability, T/C",[7],88.9%
same,"viability, T/C",[8],112%
same,"viability, T/C",[9],95.6%
same,"viability, T/C",[10],92.9%
same,"viability, T/C",[11],120%
same,"viability, T/C",[12],100%
same,"viability, T/C",[13],94.3%
same,"viability, T/C",[14],96.5%
same,"viability, T/C",[15],93.2%
same,"viability, T/C",[16],93.8%
same,"viability, T/C",[17],107%
same,"viability, T/C",[18],114%
same,"viability, T/C",[19],91.8%
same,"viability, T/C",[20],94%
same,"viability, T/C",[21],103%
same,"viability, T/C",[22],85.9%
same,"viability, T/C",[23],92.1%
same,"viability, T/C",[24],83.5%
same,"viability, T/C",[25],71.9%
same,"viability, T/C",[26],75.2%
same,"viability, T/C",[27],95.3%
same,"viability, T/C",[28],85.8%
same,"viability, T/C",[29],86.5%
same,"viability, T/C",[30],85.5%
same,"viability, T/C",[31],82%
same,"viability, T/C",[32],71.9%
same,"viability, T/C",[33],64.8%
same,"viability, T/C",[34],84.4%
same,"viability, T/C",[35],63.5%
same,"viability, T/C",[36],52%
COc1cccc2c1C(=O)c1c(O)c3c(c(O)c1C2=O)CC(O)(C(=O)CO)CC3OC1CC(N)C(O)C(C)O1 (stereo unspecified) + Cc1cnc(CNC(=O)c2c(=O)c3ccc(N4CCCN(C)CC4)nc3n3c2sc2ccccc23)cn1,IC50,second compound 0.0316 µM,4.26 µM
same,IC50,second compound 0.1 µM,4.92 µM
same,IC50,second compound 0.316 µM,3.64 µM
same,IC50,second compound 1 µM,3.99 µM
same,IC50,second compound 3.16 µM,2.38 µM
same,IC50,second compound 10 µM,0.0316 µM
same,"viability, T/C",[1],104%
same,"viability, T/C",[2],106%
same,"viability, T/C",[3],87%
same,"viability, T/C",[4],88.3%
same,"viability, T/C",[5],61.3%
same,"viability, T/C",[6],16.9%
same,"viability, T/C",[7],110%
same,"viability, T/C",[8],104%
same,"viability, T/C",[9],95.2%
same,"viability, T/C",[10],88.2%
same,"viability, T/C",[11],70.5%
same,"viability, T/C",[12],20.9%
same,"viability, T/C",[13],83.3%
same,"viability, T/C",[14],95%
same,"viability, T/C",[15],75.9%
same,"viability, T/C",[16],78.9%
same,"viability, T/C",[17],54.9%
same,"viability, T/C",[18],11.1%
same,"viability, T/C",[19],81.2%
same,"viability, T/C",[20],76.3%
same,"viability, T/C",[21],86.7%
same,"viability, T/C",[22],76.4%
same,"viability, T/C",[23],63%
same,"viability, T/C",[24],0.21%
same,"viability, T/C",[25],84.8%
same,"viability, T/C",[26],87.7%
same,"viability, T/C",[27],66.2%
same,"viability, T/C",[28],78.2%
same,"viability, T/C",[29],41.1%
same,"viability, T/C",[30],0.21%
same,"viability, T/C",[31],38.2%
same,"viability, T/C",[32],19.6%
same,"viability, T/C",[33],53.9%
same,"viability, T/C",[34],63.3%
same,"viability, T/C",[35],0.39%
same,"viability, T/C",[36],0.28%
